“Also recorded” adds a separate entry of the source.

Consider one molecule from US20240051944A1, “CRYSTALLINE FORM II OF MELANOCORTIN RECEPTOR AGONIST COMPOUND AND PREPARATION METHOD THEREFOR” (LG CHEM, LTD., priority 2020, published 2024).

Common to all, as to assay type: physicochemical
Data set [1] in a line: Dynamic vapor sorption (DVS) analysis. As for the experimental part:
DVS was measured using automated gravimetric vapor sorption analyzer equipped with Cahn D200 ultra-microbalance (DVS Intrinsic apparatus, Surface Measurement System Ltd., UK). First, a sample of 10-20 mg was put in a sample pan and hung on a hang-down wire, and measurement was started when the weight and humidity reached equilibrium. In one cycle, relative humidity was increased from 0% to 90% and then dropped back to 0%. Two cycles were carried out. The experiment was carried out in a way that the relative humidity was increased at 10% increment using a dm/dt method. The experiment was carried out at room temperature (25° C.)

Data set [2] is described as follows: Thermogravimetric analysis (TGA). As to conditions: heated 30° C. to 350° C. at 10° C./min. As for the experimental part: The TGA was measured using Mettler Toledo TGA/DSC 1 module. About 4-8 mg of the sample is weighed and put into a 100 μL Al crucible (flat-bottomed aluminum crucibles). Then, TGA measurement is performed while the sample is heated from 30° C. to 350° C. at a rate of 10° C./min. During the measurement, nitrogen gas is supplied to the inside of the instrument at a rate of 80 mL/min to prevent the inflow of oxygen and other gases. Data collection and evaluation were performed using the software STARe.

A short description of data set [3]: Stability assessment (HPLC) under accelerated and harsh storage conditions. To be noted: for Stability assessment, HPLC content: in % (unit assumed). The protocol:
About 10-30 mg of the sample was stored for 4 weeks in an open state under the accelerated condition (40° C., 75% RH) or in a sealed state under the harsh condition in an oven at 80° C. [table]

Turning to `CC(C)C(=O)N([C@H]1C[C@@H](C(=O)N2CCOCC2)N(C(=O)[C@@H]2CN(C(C)(C)C)C[C@H]2c2ccc(Cl)cc2)C1)[C@H]1CC[C@@H](C)CC1` [Example 1, N-((3S,5S)-1-((3S,4R)-1-(tert-butyl)-4-(4-chlorophenyl)pyrrolidine-3-carbonyl)-5-(morpholine-4-carbonyl)pyrrolidin-3-yl)-N-((1s,4R)-4-methylcyclohexyl)isobutyramide], the “physical change after DVS (XRPD pattern vs initial)” value in data set [1] (XRPD after DVS analysis) is listed as “no physical change occurred”. For the same molecule, in data set [1] (between 0-90% RH, 25° C.), the “total weight gain (DVS)” value is recorded as 1.25 % w/w. Besides, in data set [2], the “weight loss before degradation (TGA)” value is “no weight loss was observed”. In data set [2] (error ±5° C.), the “temperature up to which thermally stable (TGA)” value was “up to 270 °C”. Moreover, the “Stability assessment, HPLC content” value in data set [3] (Accelerated condition (40° C./75% RH), open state, Day 3) is reported as 96.35; in data set [3] (Accelerated condition (40° C./75% RH), open state, Week 1), 96.02; in data set [3] (Accelerated condition (40° C./75% RH), open state, Week 2) it was 96.08; in data set [3] (Accelerated condition (40° C./75% RH), open state, Week 4) it was 95.69; in data set [3] (Harsh condition (80° C.), sealed state, Day 3) it was 96.54; in data set [3] (Harsh condition (80° C.), sealed state, Week 1), 95.74. In addition, the “Stability assessment, HPLC content” value was found to be 94.82 in data set [3] (Harsh condition (80° C.), sealed state, Week 2); 93.42 in data set [3] (Harsh condition (80° C.), sealed state, Week 4); 96.01 in data set [3] (Initial). In addition, the “chemical stability (HPLC), result in words” value in data set [3] (accelerated condition (40° C., 75% RH), 4 weeks, listed as crystalline form II) is “showed chemical stability for 4 weeks; also recorded: exhibited chemical stability for 4 weeks”. The “decrease in the content” value in data set [3] (harsh condition (closed state, 80° C.), 4 weeks) is given as “about 2.6%”.
